Source: patent EP3180003B1 (The Regents of the University of California, priority 2014, dated 2016)
Read-outs that look alike come from different tables or passages of the source.

Experiments:
PKCε [1] = molecular target: T1, PKCε (Homo sapiens, UniProt Q02156); assay: Cell-based assay for PKCε modulation of GABAA receptors (γ2 S327 phosphorylation, ELISA format); conditions: HEK293 cell line expressing α1β2γ2 GABAA receptors and over-expressing PKCε; anti-γ2S(P)327 ELISA
T1 sequence (Q02156 1-737): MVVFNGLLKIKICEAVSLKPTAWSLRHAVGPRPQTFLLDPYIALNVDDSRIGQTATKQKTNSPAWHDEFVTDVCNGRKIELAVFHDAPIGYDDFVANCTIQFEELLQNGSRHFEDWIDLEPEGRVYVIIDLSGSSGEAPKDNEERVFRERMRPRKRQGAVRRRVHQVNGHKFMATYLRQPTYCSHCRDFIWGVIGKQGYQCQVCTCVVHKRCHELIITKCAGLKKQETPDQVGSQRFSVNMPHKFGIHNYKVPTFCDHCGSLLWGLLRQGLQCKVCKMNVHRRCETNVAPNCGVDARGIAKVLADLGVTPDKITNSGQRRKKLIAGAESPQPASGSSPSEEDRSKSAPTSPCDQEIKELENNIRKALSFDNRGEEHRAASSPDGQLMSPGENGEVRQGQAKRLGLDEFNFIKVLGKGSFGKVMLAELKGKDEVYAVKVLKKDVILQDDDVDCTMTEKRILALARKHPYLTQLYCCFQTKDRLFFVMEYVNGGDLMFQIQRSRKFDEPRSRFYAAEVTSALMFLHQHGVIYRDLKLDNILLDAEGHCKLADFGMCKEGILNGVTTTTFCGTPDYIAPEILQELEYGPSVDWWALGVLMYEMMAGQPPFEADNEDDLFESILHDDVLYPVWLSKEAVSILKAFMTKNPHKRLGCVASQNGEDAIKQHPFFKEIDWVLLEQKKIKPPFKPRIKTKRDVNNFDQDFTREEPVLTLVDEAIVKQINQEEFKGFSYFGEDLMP
Experimental: PKCε inhibition can also be measured by assaying benzodiazepine modulation of GABAA receptors in intact cells. PKCε decreases benzodiazepine potency at GABAA receptors by phosphorylating S327 of GABAA y2 subunits. The GABAA cell-based assay uses a HEK293 cell line that expresses α1β2γ2 GABAA receptors and over-expresses PKCε. […] This 6-fold difference in benzodiazepine potency can be detected without addition of a PKC activator. The assay is performed using an anti-phospho antibody that recognizes γ2S(P)327 in an ELISA format to generate 8 point dose-response curves for each compound. Background values, detected from wells in which no primary antibody was added, are subtracted from sample values. Maximal phosphorylation (positive control) is detected in reactions containing phorbol ester and lacking an inhibitor.

PKCζ = molecular target: T2, PKCζ (Homo sapiens, UniProt Q05513); assay: Inhibition of atypical PKCζ (Example 4); type: biochemical; conditions: for activity against atypical PKCζ: at 10 µM, result in words
T2 construct: purchased Invitrogen (Carlsbad, CA, USA)
T2 sequence (Q05513 1-592): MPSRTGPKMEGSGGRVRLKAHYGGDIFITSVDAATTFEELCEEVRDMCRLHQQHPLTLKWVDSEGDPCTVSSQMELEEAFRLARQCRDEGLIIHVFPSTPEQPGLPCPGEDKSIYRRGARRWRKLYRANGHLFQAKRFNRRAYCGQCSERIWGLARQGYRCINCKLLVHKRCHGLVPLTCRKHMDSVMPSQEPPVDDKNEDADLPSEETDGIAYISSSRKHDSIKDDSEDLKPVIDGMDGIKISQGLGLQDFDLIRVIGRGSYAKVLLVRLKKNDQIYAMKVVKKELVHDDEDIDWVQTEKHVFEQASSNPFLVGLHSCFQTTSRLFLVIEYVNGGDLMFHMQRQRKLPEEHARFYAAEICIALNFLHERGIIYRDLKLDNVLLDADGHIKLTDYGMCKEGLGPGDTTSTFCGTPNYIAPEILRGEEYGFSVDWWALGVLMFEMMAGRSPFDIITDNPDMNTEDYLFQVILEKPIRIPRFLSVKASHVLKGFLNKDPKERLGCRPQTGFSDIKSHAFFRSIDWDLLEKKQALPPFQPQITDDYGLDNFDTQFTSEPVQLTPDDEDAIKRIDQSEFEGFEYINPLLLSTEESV
Experimental: (§1) For example, to measure inhibition of conventional PKCγ, novel PKCδ, and atypical PKCζ, the same kinase assay disclosed above for PKCε can be used with recombinant human PKCγ, PKCδ, or PKCζ purchased from Invitrogen (Carlsbad, CA, USA) in place of PKCs, with 0.4 mM CaCl2 assay buffer for PKCγ.
(§2) The specificity of the compounds disclosed herein for inhibition of PKCε can be determined by examining their ability to inhibit ROCK1 and selected members of each PKC subfamily according to the protocols of the counter-screening assay for selectivity disclosed herein. This assay can be performed according to the biochemical assay for PKCε described above with some modifications. Rather than varying the concentrations of the inhibitors, only 10µM of each compound can be used.

PKCε [2] = molecular target: T1, PKCε; assay: Primary PKCε phosphotransferase assay; type: biochemical; set-up: FLAG; made in house; host or cells: COS-7 cells; conditions: log of molar IC50
Experimental: The assay mixture can contain 2 ng FLAG-tagged human PKCε expressed and purified from COS-7 cells in 25 µl kinase buffer containing 20 mM Tris-HCI, pH 7.4, 0.25 mM EGTA, 0.1 mg/ml BSA, 0.72% TritonX-100, 10 mM MgCl2, 0.48 µg/µl L-α-phosphatidylserine (PS) and 0.107 µg/µl sn-1,2-dioleoylglecerol (DG) (Avanti Polar Lipids, Alabaster, AL, USA), 2 µM K(Biotin)-[…], 2.5 µM ATP and 0.05 µCi [^32γ-P]ATP. After incubation at 27 °C for 90 min, the reaction is terminated by adding 12.5 µl of 7.5 M of guanidine hydrochloride. Eight microliters of reaction mixture is spotted onto a pre-cut streptavidin-coated SAM Biotin Capture membrane. […] The membrane is then air dried at room temperature for 60 min and radioactivity remaining on the membrane can be measured by liquid scintillation counting. Specific PKCε activity can then be calculated as the difference between cpms detected in the presence and absence of lipids (PS and DG). Maximal PKCε activity (positive control) can be detected in reactions lacking an inhibitor. […]
IC50 values can be calculated from normalized dose-response curves by nonlinear regression analysis.
The ability of the compounds disclosed herein to inhibit PKCε can be assessed using the primary PKCε assay described above using the biotinylated substrate […]. […]

PKCδ = molecular target: T3, PKCδ (Homo sapiens, UniProt Q05655); assay: Inhibition of novel PKCδ (Example 4); type: biochemical
T3 construct: purchased Invitrogen (Carlsbad, CA, USA)
T3 sequence (Q05655 whole entry): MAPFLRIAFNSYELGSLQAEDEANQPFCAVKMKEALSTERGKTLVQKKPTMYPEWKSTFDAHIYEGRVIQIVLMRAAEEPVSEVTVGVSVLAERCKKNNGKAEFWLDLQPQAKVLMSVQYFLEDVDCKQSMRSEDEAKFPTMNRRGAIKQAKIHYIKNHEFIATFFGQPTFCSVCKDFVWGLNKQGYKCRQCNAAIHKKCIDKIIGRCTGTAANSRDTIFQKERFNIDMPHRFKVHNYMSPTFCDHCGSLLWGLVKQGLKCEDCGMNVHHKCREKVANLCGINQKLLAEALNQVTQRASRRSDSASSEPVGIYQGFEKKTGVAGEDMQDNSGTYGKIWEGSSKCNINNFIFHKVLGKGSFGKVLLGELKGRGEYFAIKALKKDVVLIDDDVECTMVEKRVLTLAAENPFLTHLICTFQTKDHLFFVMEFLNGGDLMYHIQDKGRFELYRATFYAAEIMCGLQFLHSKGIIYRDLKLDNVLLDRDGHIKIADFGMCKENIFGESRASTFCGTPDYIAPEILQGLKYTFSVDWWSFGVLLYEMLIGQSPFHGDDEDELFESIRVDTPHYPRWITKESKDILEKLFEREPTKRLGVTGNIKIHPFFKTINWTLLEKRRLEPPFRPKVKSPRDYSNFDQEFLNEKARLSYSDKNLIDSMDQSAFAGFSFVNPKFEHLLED
Experimental: as §1, §2

PKCγ = molecular target: T4, PKCγ (Homo sapiens, UniProt P05129); assay: Inhibition of conventional PKCγ (Example 4); type: biochemical; conditions: for inhibition of conventional PKCγ: at 10 µM, result in words
T4 construct: purchased Invitrogen (Carlsbad, CA, USA)
Experimental: as §1, §2

PKCθ = molecular target: T5, PKCθ (Homo sapiens, UniProt Q04759); assay: Inhibition of novel PKCθ (Example 4); type: biochemical
T5 construct: purchased Invitrogen P2996
T5 sequence (Q04759 whole entry): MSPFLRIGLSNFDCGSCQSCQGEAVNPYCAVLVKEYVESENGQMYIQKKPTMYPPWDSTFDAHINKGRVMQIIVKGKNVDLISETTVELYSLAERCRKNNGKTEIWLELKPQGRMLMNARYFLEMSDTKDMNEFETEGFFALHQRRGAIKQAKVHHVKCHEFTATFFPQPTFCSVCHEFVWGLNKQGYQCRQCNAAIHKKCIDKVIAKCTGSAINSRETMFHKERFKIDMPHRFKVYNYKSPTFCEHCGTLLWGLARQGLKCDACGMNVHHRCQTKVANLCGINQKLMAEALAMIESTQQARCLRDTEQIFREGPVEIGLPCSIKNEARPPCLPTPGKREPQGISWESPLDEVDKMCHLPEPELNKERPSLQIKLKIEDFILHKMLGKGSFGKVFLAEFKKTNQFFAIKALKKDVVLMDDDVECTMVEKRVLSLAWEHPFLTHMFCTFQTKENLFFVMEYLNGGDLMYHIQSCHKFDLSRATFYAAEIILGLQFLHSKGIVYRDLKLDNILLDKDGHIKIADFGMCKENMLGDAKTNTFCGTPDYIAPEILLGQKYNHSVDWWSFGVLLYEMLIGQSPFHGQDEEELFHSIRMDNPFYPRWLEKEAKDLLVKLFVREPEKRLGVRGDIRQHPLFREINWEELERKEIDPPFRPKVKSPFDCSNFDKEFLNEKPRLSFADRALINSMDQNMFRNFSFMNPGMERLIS
From the text: Inhibition of PKC theta activity can be measured using the same primary phosphotransferase assay for PKCε except one substitutes recombinant human PKC theta purchased from Invitrogen for PKCε. PKC theta can also be assayed with a fluorescence polarization (FP) assay using the commercially available Protein Kinase C Assay Kit, Red, from Invitrogen (Product ID No P2941), essentially in accordance with the protocol supplied by the manufacturer. The substrate used is […] (Mw 1561), which can be obtained from Invitrogen (Product ID No P2760). The isozyme PKC theta can be obtained from Invitrogen (Product ID No P2996).
as §2

C57BL/6 mice = assay: Ethanol-induced loss of righting reflex (LORR) in vivo; conditions: 10 mg/kg i.p.
Experimental: Compound 1 was administered (10 mg/kg) i.p. to C57BL/6 mice, which were administered 20 min later 3.6 g/kg ethanol i.p. to induce loss of righting. […] These findings indicate that this class of compounds can cross the blood-brain barrier and act as a PKCε inhibitor, and prolong the duration of the LORR in the treated animals. Such increased signs of ethanol intoxication are contemplated to be aversive and to limit ethanol self-administration.

PKCε [3] = molecular target: T1, PKCε; assay: FRET based LANCE Ultra kinase assay; type: biochemical
Experimental: Certain compounds of this invention were tested in the captioned assay.

PKCε [4] = molecular target: T1, PKCε; assay: Inhibition of PKCε (Example 4); type: biochemical
[5] = log of molar IC50, read-out: Log IC50 (converted)

Compound: NC(CNC(=O)C1(c2ccc(Cl)cc2)CC1)[C@H]1CC[C@H](C(=O)Nc2ccncc2)CC1 (relative stereo) [Compound 1, trans-4-[1-Amino-2-[[[1-(4-chlorophenyl)cyclopropyl]carbonyl]amino]ethyl]-N-4-pyridinyl-cyclohexylcarboxamide]
- IC50 (PKCε [1]): 0.0089 µM
- inhibition at 10 µM (PKCζ; 10 µM inhibitor, n=3, read-out: Percent inhibition of PKC activity, Atypical PKCζ): 55.9 ± 3.8%
- IC50 (PKCε [2]): 0.131 µM
- inhibition at 10 µM (PKCδ; 10 µM inhibitor, n=3, read-out: Percent inhibition of PKC activity, Novel PKCδ): 96.3 ± 0.7%
- Ki (PKCδ; n=3): 0.173 µM
- IC50 (PKCδ; read-out: PKCδ Log IC50 (converted)): 0.708 µM
- inhibition at 10 µM (PKCγ; 10 µM inhibitor, n=3, read-out: Percent inhibition of PKC activity, Conventional PKCγ): 16.7 ± 3.8%
- inhibition of conventional PKCγ (PKCγ): inhibited
- inhibition at 10 µM (PKCθ; 10 µM inhibitor, n=3, read-out: Percent inhibition of PKC activity, Novel PKCθ): 96.9 ± 1.1%
- Ki (PKCθ; n=3): 0.0917 µM
- IC50 (PKCθ; read-out: PKCθ Log IC50 (converted)): 0.372 µM
- increase of LORR duration (C57BL/6 mice; 20 min before 3.6 g/kg ethanol i.p., versus vehicle-treated mice, p = 0.036): 45%
- LORR duration (C57BL/6 mice; drug-treated mice (n=10), 3.6 g/kg ethanol i.p., vehicle 31.4 ± 4.9 (n=8)): 45.7 ± 4.0
- IC50 (PKCε [3]; read-out: IC50): 0.0566 µM
- Ki (PKCε [4]; PKCε, read-out: Ki): < 0.02 µM
- Ki (PKCε [4]; n=3, read-out: PKCε Ki): 0.017 µM
- IC50 (PKCε [4]; read-out: PKCε Log IC50 (converted)): 0.055 µM

Compound: NC(C(=O)NCC1(c2ccc(Cl)cc2)CC1)[C@H]1CC[C@H](C(=O)Nc2ccncc2)CC1 (stereo partly drawn) [Compound 2]
- IC50 (PKCε [2]): 1.69 µM
- IC50 (PKCε [3]; [5]): 3.24 µM

Compound: NC(CNC(=O)C1(c2ccc(F)cc2)CC1)[C@H]1CC[C@H](C(=O)Nc2ccncc2)CC1 (stereo partly drawn) [Compound 3]
- Log IC50 (PKCε [3]; log of molar IC50): -6.835
- IC50 (PKCε [3]; read-out: IC50): 0.146 µM

Compound: NC(CNC(=O)C1(c2ccc(F)cc2Cl)CCCC1)[C@H]1CC[C@H](C(=O)Nc2ccncc2)CC1 (stereo partly drawn) [Compound 4]
- Log IC50 (PKCε [3]; log of molar IC50): -6.917
- IC50 (PKCε [3]; read-out: IC50): 0.121 µM

Compound: NC(CNC(=O)C1(c2ccc(F)cc2)CCCC1)[C@H]1CC[C@H](C(=O)Nc2ccncc2)CC1 (stereo partly drawn) [Compound 5]
- activity against atypical PKCζ (PKCζ): almost no activity
- inhibition of conventional PKCγ (PKCγ): inhibited
- Log IC50 (PKCε [3]; log of molar IC50): -7.370
- PKCε Log IC50(M) (PKCε [4]; log IC50 ± SE, n=3): -7.37 ± 0.03 M

Compound: NC(CNC(=O)C1(c2ccc(F)c(F)c2)CC1)[C@H]1CC[C@H](C(=O)Nc2ccncc2)CC1 (stereo partly drawn) [Compound 6]
- Log IC50 (PKCε [3]; log of molar IC50): -7.282

Compound: CC(C)(C(=O)NCC(N)[C@H]1CC[C@H](C(=O)Nc2ccncc2)CC1)c1cccs1 (stereo partly drawn) [Compound 7]
- Log IC50 (PKCε [3]; log of molar IC50): -6.553
- IC50 (PKCε [3]; read-out: IC50): 0.28 µM

Compound: NC(CNC(=O)C1CCc2cc(Cl)ccc21)[C@H]1CC[C@H](C(=O)Nc2ccncc2)CC1 (stereo partly drawn) [Compound 8]
- Log IC50 (PKCε [3]; log of molar IC50): -6.445
- IC50 (PKCε [3]; read-out: IC50): 0.359 µM

Compound: CC(C)(C(=O)NCC(N)[C@H]1CC[C@H](C(=O)Nc2ccncc2)CC1)c1ccc(Cl)cc1 (stereo partly drawn) [Compound 9]
- activity against atypical PKCζ (PKCζ): almost no activity
- inhibition of conventional PKCγ (PKCγ): inhibited
- Log IC50 (PKCε [3]; log of molar IC50): -7.398
- IC50 (PKCε [3]; read-out: IC50): 0.04 µM

Compound: NC(C(=O)NC1COc2ccccc21)[C@H]1CC[C@H](C(=O)Nc2ccncc2)CC1 (stereo partly drawn) [Compound 10]
- Log IC50 (PKCε [3]; log of molar IC50): -5.695
- IC50 (PKCε [3]; read-out: IC50): 2.02 µM

Compound: NC(C(=O)N[C@@H]1CCCc2ccccc21)[C@H]1CC[C@H](C(=O)Nc2ccncc2)CC1 (stereo partly drawn) [Compound 11]
- IC50 (PKCε [3]; [5]): 3.09 µM
- IC50 (PKCε [3]; read-out: IC50): 3.09 µM

Compound: NC(C(=O)NCc1ccc(F)cc1)[C@H]1CC[C@H](C(=O)Nc2ccncc2)CC1 (stereo partly drawn) [Compound 12]
- Log IC50 (PKCε [3]; log of molar IC50): -5.625
- IC50 (PKCε [3]; read-out: IC50): 2.37 µM
